Assay results published in BindingDB's records for doi:10.1016/j.bmc.2016.01.035 (Tohoku Pharmaceutical University, 2016).

Assay: Agonist activity at ERalpha in human MCF7 cells assessed as induction of cell proliferation incubated for 5 days by WST-8 assay

EC50: 0.22 nM
SMILES: CC(=O)N1C(C)(C)CC(=C(c2ccc(O)cc2)c2ccc(O)cc2)CC1(C)C
